The values that follow come from PMC8869097, “Benzothiazole Derivatives as Multifunctional Antioxidant Agents for Skin Damage: Structure–Activity Relationship of a Scaffold Bearing a Five-Membered Ring System” (Antioxidants, 2022).

The nature of series [1]: Filtering parameters (in vitro SPF, UVAPF, UVA/UVB, critical wavelength) of W/O formulations on PMMA plates. In kind it is physicochemical. As to the method: The synthesized derivatives were incorporated at increasing concentrations (1%, 2% and 3%) in a topical W/O cosmetic standard formulation, to evaluate the filtering parameters, having the following ingredients composition.
INCI (International Nomenclature Cosmetic Ingredients): aqua, glycerin, Euxyl PE 9010, xanthan gum, ceteareth-12, ceteareth-20, sterearic acid, butylhydroxytoluene, myritol, PEG-7 glyceryl cocoate and 10% sodium solution.
Briefly, the protocol is to finger spread 32.5 mg of each formulation onto 25 cm2 PMMA plates. Each formulation was tested in triplicate by recording five measurements for each dish, after incubation in the dark for 15–30 min at room temperature. UV transmittance data were recorded in the range 290–400 nm using a UV-VIS spectrophotometer.
Blank plate, SPF, UVA-PF and Critical Wavelength were achieved through SPF Calculator Software (version 2.1), Shimadzu, Milan, Italy) as previously reported.
For the determination of the SPF in vitro of the samples in formulation it was decided to use an internal method, developed by us previously and based on the adaptation of the ISO 24443: 2012 [38]. The transmittance spectrum, processed with a specific software (SPF Calculator), made it possible to obtain the SPF, UVAPF, critical lambda and UVA/UVB ratio values of the formulations containing the selected active ingredients (Table 1).

The next series has as its system Microsporum gypseum. The series can be described thus: Antidermatophyte activity, plaque growth inhibition. In kind it is cell-based, Microsporum gypseum CBS 130,948. To be noted: Nannizzia gypsea; 100 μg/mL, SDA; read-out: % Inhibition Growth M. gypseum. As to the method: (§1) The dermatophytes used in this study were Epidermophyton floccosum var. floccosum (Netherlands) CBS 358.93 strain, Trichophyton tonsurans (Netherlands) CBS 483.76 strain, Trichophyton mentagrophytes (Netherlands) CBS 160.66 strain, Microsporum canis (Iran) CBS 131,110 strain, and Microsporum gypseum (Iran) CBS 130,948 strain. All dermatophytes were maintained at 4 °C as agar slants on SDA. Candida albicans (ATCC 10231) was maintained at 4 °C on SDA plate.
(§2) The in vitro antifungal activity against the five selected dermatophytes was evaluated, as previously described, using the plaque growth inhibition method. All compounds were evaluated at the final concentration of 100 µg/mL. The percentages of growth inhibition according to Equation (5) were calculated as the average of three different experiments. I = [(C − T)/C] × 100%,(5) where I is the percentage value of growth inhibition, C is the measure of the diameter of the control circular mycelial inoculum (mm) and T is the extended diameter of the treated mycelial inoculum (mm).
(§3) All synthesized benzothiazole derivatives were evaluated to evaluate their in vitro antifungal activity against the five pathogenic dermatophytes that cause the most common dermatomycoses: Microsporum gypseum, Microsporum canis, Trichophyton mentagrophytes, Trichophyton tonsurans and Epidermophyton floccosum. All compounds were tested at a concentration of 100 µg/mL in DMSO, to evaluate the ability to inhibit the growth of dermatophyte cultures in Sabouraud Dextrose Agar (SDA). Briefly, room temperature incubation was performed and dermatophyte inhibition assessed by measuring the colony diameter at each disc for 7 days. The results are shown in Table 3 and were determined as the average of three different experiments.

The test system of series [2] is Trichophyton mentagrophytes. The description is as above. In kind it is cell-based, Trichophyton mentagrophytes CBS 160.66. The note with it: 100 μg/mL, SDA, read-out: % Inhibition Growth T. mentagrophytes. As to the method:
as §1, §2, §3

Series [3] deals with Candida albicans (ATCC 10231). The series can be described thus: Anti-Candida albicans activity, broth microdilution MIC. Format: cell-based. To be noted: for MIC: Candida albicans, ATCC10231, 24 h of incubation; for activity against Candida albicans: after 24 h. The method, then: as §1
The suspension of Candida albicans consists of the dispersion of an aliquot in 5 mL of sterilized water. The compounds and fluconazole, used as a positive control, were solubilized in DMSO (12.80 mg/mL) as stock solutions. Minimum inhibitory concentration (MIC) was performed by the broth microdilution method according to the approved standard M27-A3, 2008 [NCCLS] of the Clinical and Laboratory Standards Institute/National Committee for Clinical Laboratory Standards (CLSI/NCCLS), as described previously.
Candida is a strain of fungi known to transmit infections to different parts of the human body, including the skin [43], which is why the synthesized compounds have also been tested against Candida Albicans (ATCC 10231). For each of them the minimum inhibitory concentration (MIC) was determined by the broth microdilution method using RPMI 1640 + MOPS as culture medium. […] Fluconazole was used as a positive control drug. […] Similarly to the results observed on dermatophytes, therefore, the unsubstituted compounds in position 6 of benzimidazole gave activity on yeasts, except for compound 8a.

In series [4] the test system is dermatophytes. As to the kind of experiment: Antidermatophyte activity, all tested dermatophytes together. Format: cell-based. The note with it: read-out: percentages of inhibition of growth, all five dermatophytes. As to the method: as §2, §3
Series [5] deals with dermatophytes. More on the design: method as in PMID 32967192. To be noted: cited from earlier work.

Molecules are shown by their SMILES. Values after ≈ are worked out from the molar mass of the structure shown.

For `c1c[nH]c(-c2nc3ccccc3s2)c1` [Compound 8a, 2-(1H-Pyrrol-2-Yl)benzothiazole], in series [1] (1% in W/O formulation), the SPF was 4.19, the UVA/UVB is recorded as 1.17, the UVAPF came to 2.17 and the λc came to 354 nm. Moreover, in series [1] (2% in W/O formulation), the SPF is reported as 7.16, the UVA/UVB worked out at 0.92, the UVAPF came out at 2.46 and the λc stood at 353 nm. In series [1] (3% in W/O formulation), this compound yielded an SPF of 13.05, a UVA/UVB of 0.66, a UVAPF of 2.88 and a λc of 354 nm. In series [1] (UVA-PF at least 1/3 of SPF to be efficient), the UVA protection profile entry was “good UVA protection profile”. In addition, in the series with Microsporum gypseum, the inhibition at 100 µg/mL turned out to be 50 ± 1.34%. Moreover, in series [2], the inhibition at 100 µg/mL came to 10 ± 0.51%.
On to `c1coc(-c2nc3ccccc3s2)c1` [Compound 9a, 2-(Furan-2-Yl)benzothiazole], for which the SPF in series [1] (1% in W/O formulation) is given as 6.42; in series [1] (2% in W/O formulation), 14.18; in series [1] (3% in W/O formulation), 20.23. The UVA/UVB in series [1] (1% in W/O formulation) is recorded as 0.34; in series [1] (2% in W/O formulation), 0.18; in series [1] (3% in W/O formulation), 0.13. For the same compound, the UVAPF in series [1] (1% in W/O formulation) is 1.26; in series [1] (2% in W/O formulation), 1.60; in series [1] (3% in W/O formulation) it was 1.50. Also, the λc was determined as 337 nm in series [1] (1% in W/O formulation), 341 nm in series [1] (2% in W/O formulation) and 343 nm in series [1] (3% in W/O formulation). Also, the results for the inhibition at 100 µg/mL (in the series with Microsporum gypseum; in series [2]; in the series with dermatophytes [4]) were 74.78 ± 0.59%, 54 ± 0.99% and 50 to 75%, respectively. 32 µg/mL (≈ 159 µM) was the least that counted as inhibitory in series [3] (MIC). Besides, the “activity against Candida albicans” value in series [3] is listed as “showed activity against Candida albicans after 24 h”.
On to `c1csc(-c2nc3ccccc3s2)c1` [Compound 10a, 2-(Thiophen-2-Yl)benzothiazole], for which the figures for the SPF in series [1] (1% in W/O formulation), in series [1] (2% in W/O formulation) and in series [1] (3% in W/O formulation) were 4.86, 5.14 and 10.73, respectively. Besides, the UVA/UVB is reported as 0.69 in series [1] (1% in W/O formulation), 0.62 in series [1] (2% in W/O formulation) and 0.45 in series [1] (3% in W/O formulation). Besides, the UVAPF in series [1] (1% in W/O formulation) was 1.60; in series [1] (2% in W/O formulation), 1.60; in series [1] (3% in W/O formulation), 2.02. The λc in series [1] (1% in W/O formulation) worked out at 347 nm; in series [1] (2% in W/O formulation), 347 nm; in series [1] (3% in W/O formulation), 349 nm. Further, the inhibition at 100 µg/mL in the series on Microsporum gypseum is 70.4 ± 0.77%; in series [2], 61.95 ± 0.44%; in the series on dermatophytes [4], 50 to 75%. This compound also came in with a minimum inhibitory concentration (MIC) in series [3] of 64 µg/mL (≈ 294 µM). The “activity against Candida albicans” value in series [3] is given as “showed activity against Candida albicans after 24 h”.
With `NS(=O)(=O)c1ccc2nc(-c3cccs3)sc2c1` [Compound 10c, 2-(Thiophen-2-Yl)benzothiazole-6-Sulfonamide], the inhibition at 100 µg/mL in the series on Microsporum gypseum worked out at 12.36 ± 0.05%; in series [2], 10.92 ± 0.09%.
In series [1] (1% in W/O formulation), `c1c[nH]c(-c2nc3ccccc3[nH]2)c1` [Lead 10, reference compound] came in with an SPF of 2.44, a UVA/UVB of 0.70, a UVAPF of 1.16 and a λc of 341 nm. In addition, in series [1] (2% in W/O formulation), the SPF is 2.72, the UVA/UVB was 0.73, the UVAPF worked out at 1.32 and the λc came to 357 nm. In series [1] (3% in W/O formulation), the SPF came out at 3.06, the UVA/UVB was determined as 0.75, the UVAPF is listed as 1.54 and the λc is reported as 364 nm. For the same compound, the inhibition at 100 µg/mL in the series on Microsporum gypseum amounted to 99.1 ± 1.33%. In series [2], the inhibition at 100 µg/mL came to 96.3 ± 2.42%. The “IC50 towards the tested dermatophytes” value in the series on dermatophytes [5] is on record as “lower than 2 µg/mL”.
